Reference: PMC5635026, “Homo-PROTACs: bivalent small-molecule dimerizers of the VHL E3 ubiquitin ligase to induce self-degradation” (Nature Communications, 2017)
Where “and” joins values, the source holds several entries; their conditions need not be identical. Equal entries are not always repeated.

Experiments:
Dermcidin (DCD) = assay: TMT MS proteomics in HeLa cells, DCD abundance; type: cell-based, Homo sapiens; conditions: 1 µM, 10 h, two replicates
Procedure: MS proteomics. Sample preparation. HeLa cells were seeded at 5 × 10^6 on a 10 cm plate 16 h before treatment. […] Cells were incubated at 37 °C and 5% CO2 for 10 h before harvesting. Cells were placed on ice and medium was removed and cells were washed twice with cold PBS. Cells were lysed in 0.5 ml of 100 mM Tris pH 8.0, 4% (w/v) SDS supplemented with protease inhibitor cocktail (Roche). The lysate was pulse sonicated briefly and then centrifuged at 17,000 × g for 15 min at 4 °C. The supernatant fraction of cell extract was snap-frozen in liquid nitrogen and stored in −80 °C freezer. Further sample processing, digestion, desalting, labeling and fractionation were performed as previously described.
nLC-MS/MS analysis. The TMT 10plex fractions were first analyzed as previously described. Briefly, the TMT 10plex fractions were analyzed sequentially on a Q Exactive HF Hybrid Quadrupole-Orbitrap Mass Spectrometer (Thermo Scientific) coupled to an UltiMate 3000 RSLCnano UHPLC system (Thermo Scientific) and EasySpray column (75 μm × 50 cm, PepMap RSLC C18 column, 2 μm, 100 Å, Thermo Scientific). The MS2 isolation window was set to 0.4 Da and the resolution set at 120,000. MS2 resolution was set at 60,000. The AGC targets for MS1 and MS2 were set at 3e^6 ions and 1e5 ions, respectively. The normalized collision energy was set at 32%. […] After the first analysis, the TMT labeled fractions were re-analyzed on the Q-Exactive HF using the same instrument settings and a target list generated from a theoretical trypsin digest of VHL. […] After the second analysis, two fractions were further analyzed using a targeted SIM/ddMS2 method on the Q-Exactive HF. […]
Peptide and protein identification. All the raw MS data files from the three analyses were merged and searched against the Uniprot-sprot-Trembl-Human-Canonical database by Maxquant software 1.5.3.30 for protein identification and TMT reporter ion quantitation. […] Quantified proteins were filtered if the absolute fold-change difference between the two DMSO replicates was ≥ 1.5.

pVHL19 = pVHL19 (Homo sapiens, UniProt P40337); assay: Isothermal titration calorimetry (ITC) against VCB complex with short VHL isoform (V19CB); type: binding; design: made in house; conditions: for ΔG / ΔH / −TΔS / Kd / n: 25 °C; for ΔG / ΔH / −TΔS / α: pVHL19; for Kd / n: pVHL19 (V19CB); for n: stoichiometry of binding; for α: avidity / cooperativity compared to VH032, ITC
Chain of pVHL19 (P40337 54-213): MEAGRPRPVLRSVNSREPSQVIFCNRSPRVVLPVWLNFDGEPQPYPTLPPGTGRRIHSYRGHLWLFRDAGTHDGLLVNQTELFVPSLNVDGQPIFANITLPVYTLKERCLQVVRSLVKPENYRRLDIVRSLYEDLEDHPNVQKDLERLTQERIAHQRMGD
Chain of pVHL19 (Q15369 17-112 partner limits assumed): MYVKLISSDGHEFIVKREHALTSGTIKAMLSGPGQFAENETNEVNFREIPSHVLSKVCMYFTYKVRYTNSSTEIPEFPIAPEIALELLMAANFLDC
Chain of pVHL19 (Q15370 1-104 partner limits assumed): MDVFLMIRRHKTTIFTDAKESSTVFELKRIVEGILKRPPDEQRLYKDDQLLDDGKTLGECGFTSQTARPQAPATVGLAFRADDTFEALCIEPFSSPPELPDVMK
Procedure: Protein expression and purification. Human proteins VHL (UniProt accession number: P40337), ElonginC (Q15369), and ElonginB (Q15370) were used for all protein expression. The short-isoform-containing VCB complex (V19CB) was expressed, purified and stored as described previously. For expression of the long-isoform-containing VCB complex (V30CB), N-terminally His6-tagged VHL (1–213), ElonginC (17–112) and ElonginB (1–104) were co-expressed in Escherichia coli BL21(DE3) at 20 °C for 18 h using 0.5 mM isopropyl β-D-1-thiogalactopyranoside (IPTG). E. coli cells were resuspended in binding buffer (50 mM HEPES, pH 8.0, 500 mM NaCl, 10 mM imidazole and 5 mM β-mercaptoethanol), lysed using a pressure cell homogenizer (Stansted Fluid Power), and lysate clarified by centrifugation. The supernatant was loaded onto a HisTrap FF affinity column (GE Healthcare) equilibrated with binding buffer, and bound protein was eluted using an imidazole gradient. The His6 tag was removed using thrombin protease (Sigma), and the untagged complex was dialyzed into binding buffer. V30CB was then loaded onto the HisTrap FF column a second time, allowing impurities to bind as the complex eluted without binding. The flow-through was dialyzed using a low-salt buffer (20 mM HEPES, pH 8.0, 25 mM NaCl and 1 mM DTT) and then loaded onto a Resource Q anion exchange column (GE Healthcare); bound protein was eluted across a linear NaCl gradient. V30CB was then additionally purified by size-exclusion chromatography using a Superdex-75 16/600 column (GE Healthcare) equilibrated with 20 mM HEPES, pH 7.5, 100 mM sodium chloride and 1 mM TCEP. All chromatography purification steps were performed using Äkta FPLC purification systems (GE Healthcare).
Isothermal titration calorimetry (ITC). Titrations were performed on an ITC200 micro-calorimeter (GE Healthcare). […] The final DMSO concentration was 0.15% v/v. VCB protein experiments were carried out in a buffer containing 20 mM Bis-tris propane, 150 mM NaCl, 1 mM TCEP, 0.15% v/v DMSO, pH 7.4. The titrations consisted of 19 injections of 2 µL compounds solution (150 µM, in the syringe) at a rate of 0.5 µl s^−1 at 120 s time intervals into the VCB protein solution (20 µM, in the cell). An initial injection of compound solution (0.4 µL) was made and discarded during data analysis. All experiments were performed at 25 °C, whilst stirring the syringe at 600 rpm. The data were fitted to a single binding site model to obtain the stoichiometry n, the dissociation constant K d and the enthalpy of binding ΔH using the Microcal LLC ITC200 Origin software provided by the manufacturer.

ΔG (pVHL19; ITC)	ΔH (pVHL19; ITC)	−TΔS (pVHL19; ITC)	Kd (pVHL19; ITC) [nM]	n (pVHL19; ITC)	α (pVHL19)	avidity (cooperativity α) compared to VH032 (pVHL19; ITC, VCB) [fold]	Compound	average normalized ratio to DMSO, DCD (Dermcidin (DCD))
–10.2 ± 0.1 kcal mol^−1	–9.4 ± 0.1 kcal mol^−1	–0.8 ± 0.2 kcal mol^−1	32 ± 5	0.73 ± 0.01	6		Cc1ncsc1-c1ccc(CNC(=O)[C@@H]2C[C@@H](O)CN2C(=O)[C@@H](NC(=O)COCCOCCOCCOCCOCC(=O)N[C@H](C(=O)N2C[C@H](O)C[C@H]2C(=O)NCc2ccc(-c3scnc3C)cc2)C(C)(C)C)C(C)(C)C)cc1 [CM10, N ^1 ,N ^17-bis((S)-1-((2S,4R)-4-hydroxy-2-((4-(4-methylthiazol-5-yl)benzyl)carbamoyl)pyrrolidin-1-yl)-3,3-dimethyl-1-oxobutan-2-yl)-3,6,9,12,15-pentaoxaheptadecanediamide]	1.33
–10.3 ± 0.2 kcal mol^−1	–6.9 ± 0.3 kcal mol^−1	–3.5 ± 0.5 kcal mol^−1	41 ± 15	0.98 ± 0.09	4		Cc1ncsc1-c1ccc(CNC(=O)[C@@H]2C[C@@H](O)CN2C(=O)[C@@H](NC(=O)COCCOCCOCCOCC(=O)N[C@H](C(=O)N2C[C@H](O)C[C@H]2C(=O)NCc2ccc(-c3scnc3C)cc2)C(C)(C)C)C(C)(C)C)cc1 [CM09, N ^1 ,N ^14-bis((S)-1-((2S,4R)-4-hydroxy-2-((4-(4-methylthiazol-5-yl)benzyl)carbamoyl)pyrrolidin-1-yl)-3,3-dimethyl-1-oxobutan-2-yl)-3,6,9,12-tetraoxatetradecanediamide]	1.41

Compound	ΔG (pVHL19; ITC)	ΔH (pVHL19; ITC)	−TΔS (pVHL19; ITC)	Kd (pVHL19; ITC) [nM]	n (pVHL19; ITC)	α (pVHL19)	avidity (cooperativity α) compared to VH032 (pVHL19; ITC, VCB) [fold]	average normalized ratio to DMSO, DCD (Dermcidin (DCD))
Cc1ncsc1-c1ccc(CNC(=O)[C@@H]2C[C@@H](O)CN2C(=O)[C@@H](NC(=O)COCCOCCOCCOCCOCCOCC(=O)N[C@H](C(=O)N2C[C@H](O)C[C@H]2C(=O)NCc2ccc(-c3scnc3C)cc2)C(C)(C)C)C(C)(C)C)cc1 [CM11, N ^1 ,N ^20-bis((S)-1-((2S,4R)-4-hydroxy-2-((4-(4-methylthiazol-5-yl)benzyl)carbamoyl)pyrrolidin-1-yl)-3,3-dimethyl-1-oxobutan-2-yl)-3,6,9,12,15,18-hexaoxaicosanediamide]	–10.9 ± 0.1 kcal mol^−1		1.4 kcal/mol and 1.4 ± 0.8 kcal/mol	11 ± 2	0.6 ± 0.01	18	> 18	0.87
